For 30 compounds, melting point results are on record in US7196090B2, “Kinase inhibitors” (Warner-Lambert Company, priority 2002, dated 2007).

For orientation: melting point means the temperature, or range, at which the solid turns liquid. Turning to `COc1cc(OC)c(F)c(N2Cc3cnc(N)nc3N(C3CCNCC3)C2=O)c1F.O=C(O)C(F)(F)F`, the melting point is 200 to 220 °C (dec.).

`CNc1ncc2c(n1)N(C1CCNCC1)C(=O)N(c1c(F)c(OC)cc(OC)c1F)C2.O=C(O)C(F)(F)F`: the melting point was in the range of 135 to 140 °C. In turn, `CCN(CC)CCCCNc1ncc2c(n1)N(C1CCCC1)C(=O)N(c1c(F)c(OC)cc(OC)c1F)C2` [Example 2, 1-Cyclopentyl-7-(4-diethylamino-butylamino)-3-(2,6-difluoro-3,5-dimethoxy-phenyl)-3,4-dihydro-1H-pyrimido[4,5-d]pyrimidin-2-one] showed a melting point of 132 to 133 °C. For the compound `COc1cc(OC)c(F)c(N2Cc3cnc(NC[C@H](O)[C@@H](O)CO)nc3N(C3CCCC3)C2=O)c1F` [Example 4, (S,S)-1-Cyclopentyl-3-(2,6-difluoro-3,5-dimethoxy-phenyl)-7-(2,3,4-trihydroxy-butylamino)-3,4-dihydro-1H-pyrimido[4,5-d]pyrimidin-2-one], the melting point is 160 °C (dec.).

For `COc1cc(OC)c(F)c(N2Cc3cnc(NC4CCC(O)CC4)nc3N(C3CCCC3)C2=O)c1F` (stereo not drawn) [Example 5, 1-Cyclopentyl-3-(2,6-difluoro-3,5-dimethoxy-phenyl)-7-(4-hydroxy-cyclohexylamino)-3,4-dihydro-1H-pyrimido[4,5-d]pyrimidin-2-one], the melting point was 208 to 212 °C (dec.). Compound `COc1cc(OC)c(F)c(N2Cc3cnc(NC(CO)CO)nc3N(C3CCCC3)C2=O)c1F` [Example 6, 1-Cyclopentyl-3-(2,6-difluoro-3,5-dimethoxy-phenyl)-7-(2-hydroxy-1-hydroxymethyl-ethylamino)-3,4-dihydro-1H-pyrimido[4,5-d]pyrimidin-2-one] returned a melting point of 172 to 174 °C.

Consider `COc1cc(OC)c(F)c(N2Cc3cnc(NCC(O)CN)nc3N(C3CCCC3)C2=O)c1F` (stereo not drawn) [Example 7, 7-(3-Amino-2-hydroxy-propylamino)-1-cyclopentyl-3-(2,6-difluoro-3,5-dimethoxy-phenyl)-3,4-dihydro-1H-pyrimido[4,5-d]pyrimidin-2-one], for which the melting point was 167 °C (dec.). The result for `COc1cc(OC)c(F)c(N2Cc3cnc(NCCOCCO)nc3N(C3CCCC3)C2=O)c1F` [Example 8, 1-Cyclopentyl-3-(2,6-difluoro-3,5-dimethoxy-phenyl)-7-[2-(2-hydroxy-ethoxy)-ethylamino]-3,4-dihydro-1H-pyrimido[4,5-d]pyrimidin-2-one] reads 160 to 163 °C. The result for `CCN(CC)CCCCNc1ncc2c(n1)N(C1CC1)C(=O)N(c1c(F)c(OC)cc(OC)c1F)C2` [Example 9, 1-Cyclopropyl-7-(4-diethylamino-butylamino)-3-(2,6-difluoro-3,5-dimethoxy-phenyl)-3,4-dihydro-1H-pyrimido[4,5-d]pyrimidin-2-one] reads 139 to 141 °C.

`CCN(CC)CCCCNc1ncc2c(n1)N(CC)C(=O)N(c1c(F)c(OC)cc(OC)c1F)C2` [Example 10, 7-(4-Diethylamino-butylamino)-3-(2,6-difluoro-3,5-dimethoxy-phenyl)-1-ethyl-3,4-dihydro-1H-pyrimido[4,5-d]pyrimidin-2-one] had a melting point of 140 to 141 °C.

On to `CCN1C(=O)N(c2c(F)c(OC)cc(OC)c2F)Cc2cnc(NC(CO)CO)nc21` [Example 11, 3-(2,6-Difluoro-3,5-dimethoxy-phenyl)-1-ethyl-7-(2-hydroxy-1-hydroxymethyl-ethylamino)-3,4-dihydro-1H-pyrimido[4,5-d]pyrimidin-2-one], for which the melting point was 168 to 172 °C. Take `CCN1C(=O)N(c2c(F)c(OC)cc(OC)c2F)Cc2cnc(NC3CCC(O)CC3)nc21` (stereo not drawn) [Example 12, 3-(2,6-Difluoro-3,5-dimethoxy-phenyl)-1-ethyl-7-(4-hydroxy-cyclohexylamino)-3,4-dihydro-1H-pyrimido[4,5-d]pyrimidin-2-one]: the melting point was 198 to 202 °C.

As to `COc1cc(OC)c(F)c(N2Cc3cnc(NCC(O)C(C)O)nc3N(C3CCCC3)C2=O)c1F` (stereo not drawn) [Example 13, 1-Cyclopentyl-3-(2,6-difluoro-3,5-dimethoxy-phenyl)-7-(2,3-dihydroxy-butylamino)-3,4-dihydro-1H-pyrimido[4,5-d]pyrimidin-2-one], the melting point was 195 to 196 °C (dec.). The result for `COc1cc(OC)c(F)c(N2Cc3cnc(NCC(O)CO)nc3N(C3CCCC3)C2=O)c1F` (stereo not drawn) [Example 14, 1-Cyclopentyl-3-(2,6-difluoro-3,5-dimethoxy-phenyl)-7-(2,3-dihydroxy-propylamino)-3,4-dihydro-1H-pyrimido[4,5-d]pyrimidin-2-one] reads 118 to 122 °C; that for `COc1cc(OC)c(F)c(N2Cc3cnc(NCC(O)C(O)CN)nc3N(C3CCCC3)C2=O)c1F` (stereo not drawn) [Example 15, 7-(4-Amino-2,3-dihydroxy-butylamino)-1-cyclopentyl-3-(2,6-difluoro-3,5-dimethoxy-phenyl)-3,4-dihydro-1H-pyrimido[4,5-d]pyrimidin-2-one], 158 °C (dec.). With `COc1cc(OC)c(F)c(N2Cc3cnc(NC[C@H](O)[C@@H](O)CO)nc3N(C3CCCC3)C2=O)c1` [Example 16, 1-Cyclopentyl-3-(2-fluoro-3,5-dimethoxy-phenyl)-7-([S,S]-2,3,4-trihydroxy-butylamino)-3,4-dihydro-1H-pyrimido[4,5-d]pyrimidin-2-one], the melting point lay in the range of 86 to 88 °C. The result for `CCN1C(=O)N(c2c(F)c(OC)cc(OC)c2F)Cc2cnc(NCCOCCO)nc21` [Example 17, 3-(2,6-Difluoro-3,5-dimethoxy-phenyl)-1-ethyl-7-[2-(2-hydroxy-ethoxy)-ethylamino]-3,4-dihydro-1H-pyrimido[4,5-d]pyrimidin-2-one] reads 159 to 160 °C. Take `CCN1C(=O)N(c2c(F)c(OC)cc(OC)c2F)Cc2cnc(NCC(O)C(O)CN)nc21` (stereo not drawn) [Example 18, 7-(4-Amino-2,3-dihydroxy-butylamino)-3-(2,6-difluoro-3,5-dimethoxy-phenyl)-1-ethyl-3,4-dihydro-1H-pyrimido[4,5-d]pyrimidin-2-one]: the melting point was 115 °C (dec.).

For `CCN1C(=O)N(c2c(F)c(OC)cc(OC)c2F)Cc2cnc(NCCCN(CCO)CCO)nc21` [Example 19, 7-{3-[Bis-(2-hydroxy-ethyl)-amino]-propylamino}-3-(2,6-difluoro-3,5-dimethoxy-phenyl)-1-ethyl-3,4-dihydro-1H-pyrimido[4,5-d]pyrimidin-2-one], the melting point lay in the range of 128 to 129 °C. As to `COc1cc(OC)c(F)c(N2Cc3cnc(NCC(O)CO)nc3N(C3CCCC3)C2=O)c1F` (stereo not drawn) [Example 20, 1-Cyclopentyl-3-(2,6-difluoro-3,5-dimethoxy-phenyl)-7-(2,3-dihydroxy-propylamino)-3,4-dihydro-1H-pyrimido[4,5-d]pyrimidin-2-one], the melting point lay in the range of 179 to 182 °C. The compound `CCN1C(=O)N(c2c(F)c(OC)cc(OC)c2F)Cc2cnc(NCC(O)C(C)O)nc21` (stereo not drawn) [Example 21, 3-(2,6-Difluoro-3,5-dimethoxy-phenyl)-7-(2,3-dihydroxy-butylamino)-1-ethyl-3,4-dihydro-1H-pyrimido[4,5-d]pyrimidin-2-one] showed a melting point of 171 to 173 °C. The result for `CNc1ncc2c(n1)N(C1CCC(C(=O)O)CC1)C(=O)N(c1c(F)c(OC)cc(OC)c1F)C2` (stereo not drawn) [Example 23, 4-[3-(2,6-Difluoro-3,5-dimethoxy-phenyl)-7-methylamino-2-oxo-3,4-dihydro-2H-pyrimido[4,5-d]pyrimidin-1-yl]-cyclohexanecarboxylic Acid] reads 148 °C; that for `COc1cc(OC)c(F)c(N2Cc3cnc(NC(CO)CO)nc3N(C3CCCC3)C2=O)c1` [Example 25, 1-Cyclopentyl-3-(2-fluoro-3,5-dimethoxy-phenyl)-7-(2-hydroxy-1-hydroxymethyl-ethylamino)-3,4-dihydro-1H-pyrimido[4,5-d]pyrimidin-2-one], 194 to 195 °C. For `CCN1C(=O)N(c2cc(OC)cc(OC)c2F)Cc2cnc(NCCCCO)nc21` [Example 26, 1-Ethyl-3-(2-fluoro-3,5-dimethoxy-phenyl)-7-(4-hydroxy-butylamino)-3,4-dihydro-1H-pyrimido[4,5-d]pyrimidin-2-one] the value was 129 to 131 °C; for `COc1cc(OC)c(F)c(N2Cc3cnc(NC[C@H](O)CO)nc3N(C3CCCC3)C2=O)c1` [Example 27, (S)-1-Cyclopentyl-7-(2,3-dihydroxy-propylamino)-3-(2-fluoro-3,5-dimethoxy-phenyl)-3,4-dihydro-1H-pyrimido[4,5-d]pyrimidin-2-one], 92 to 94 °C; for `CCN1C(=O)N(c2c(F)c(OC)cc(OC)c2F)Cc2cnc(NCC(O)CO)nc21` (stereo not drawn) [Example 31, 3-(2,6-Difluoro-3,5-dimethoxy-phenyl)-7-(2,3-dihydroxy-propylamino)-1-ethyl-3,4-dihydro-1H-pyrimido[4,5-d]pyrimidin-2-one], 148 to 152 °C.

As to `CCOc1ccc(F)c(N2Cc3cnc(NCCCCN(CC)CC)nc3N(C3CCCC3)C2=O)c1F` [Example 32, 1-Cyclopentyl-7-(4-diethylamino-butylamino)-3-(3-ethoxy-2,6-difluoro-phenyl)-3,4-dihydro-1H-pyrimido[4,5-d]pyrimidin-2-one], the melting point lay in the range of 129 to 130 °C. Regarding `COc1cc(OC)c(F)c(N2Cc3cnc(NC[C@@H](O)CO)nc3N(C3CCCC3)C2=O)c1` [Example 33, (R)-1-Cyclopentyl-7-(2,3-dihydroxy-propylamino)-3-(2-fluoro-3,5-dimethoxy-phenyl)-3,4-dihydro-1H-pyrimido[4,5-d]pyrimidin-2-one], the melting point was in the range of 89 to 91 °C. As for `CCN1C(=O)N(c2cc(OC)cc(OC)c2F)Cc2cnc(NCCOCCO)nc21` [Example 34, 1-Ethyl-3-(2-fluoro-3,5-dimethoxy-phenyl)-7-[2-(2-hydroxy-ethoxy)-ethylamino]-3,4-dihydro-1H-pyrimido[4,5-d]pyrimidin-2-one], the melting point was 143 to 146 °C. The result for `COc1cc(OC)c(F)c(N2Cc3cnc(N[C@H]4CC[C@H](O)CC4)nc3N(C3CCCC3)C2=O)c1` [Example 35, 1-Cyclopentyl-3-(2-fluoro-3,5-dimethoxy-phenyl)-7-(trans-4-hydroxy-cyclohexylamino)-3,4-dihydro-1H-pyrimido[4,5-d]pyrimidin-2-one] reads 108 to 110 °C.
